# In patent US8278345B2, “Inhibitors of glutaminyl cyclase” (Probiodrug AG, priority 2006, dated 2012):
# Target: hQC (Homo sapiens, UniProt Q16769)
# Assay: Inhibitor assay for glutaminyl cyclase activity (fluorometric, H-Gln-βNA / H-Gln-AMC)
# Type: biochemical
# Conditions: compound from preparative synthesis, purified; read-out: IC50 hQC
# Experimental: All measurements were performed with a BioAssay Reader HTS-7000Plus for microplates (Perkin Elmer) at 30° C. QC activity was evaluated fluorometrically using H-Gln-βNA. The samples consisted of 0.2 mM fluorogenic substrate, 0.25 U pyroglutamyl aminopeptidase (Unizyme, Hørsholm, Denmark) in 0.2 M Tris/HCl, pH 8.0 containing 20 mM EDTA and an appropriately diluted aliquot of QC in a final volume of 250 μl. Excitation/emission wavelengths were 320/410 nm. The assay reactions were initiated by addition of glutaminyl cyclase. QC activity was determined from a standard curve of β-naphthylamine under assay conditions. One unit is defined as the amount of QC catalyzing the formation of 1 μmol pGlu-βNA from H-Gln-βNA per minute under the described conditions.
# In a second fluorometric assay, QC activity was determined using H-Gln-AMC as substrate. Reactions were carried out at 30° C. utilizing the NOVOStar reader for microplates (BMG labtechnologies). The samples consisted of varying concentrations of the fluorogenic substrate, 0.1 U pyroglutamyl aminopeptidase (Qiagen) in 0.05 M Tris/HCl, pH 8.0 containing 5 mM EDTA and an appropriately diluted aliquot of QC in a final volume of 250 μl. Excitation/emission wavelengths were 380/460 nm. The assay reactions were initiated by addition of glutaminyl cyclase. QC activity was determined from a standard curve of 7-amino-4-methylcoumarin under assay conditions. The kinetic data were evaluated using GraFit sofware.
# For inhibitor testing, the sample composition was the same as described above, except of the putative inhibitory compound added. For a rapid test of QC-inhibition, samples contained 4 mM of the respective inhibitor and a substrate concentration at 1 KM. For detailed investigations of the inhibition and determination of Ki-values, influence of the inhibitor on the auxiliary enzymes was investigated first. In every case, there was no influence on either enzyme detected, thus enabling the reliable determination of the QC inhibition. The inhibitory constant was evaluated by fitting the set of progress curves to the general equation for competitive inhibition using GraFit software.
# hQC, sequence (Q16769 29-361): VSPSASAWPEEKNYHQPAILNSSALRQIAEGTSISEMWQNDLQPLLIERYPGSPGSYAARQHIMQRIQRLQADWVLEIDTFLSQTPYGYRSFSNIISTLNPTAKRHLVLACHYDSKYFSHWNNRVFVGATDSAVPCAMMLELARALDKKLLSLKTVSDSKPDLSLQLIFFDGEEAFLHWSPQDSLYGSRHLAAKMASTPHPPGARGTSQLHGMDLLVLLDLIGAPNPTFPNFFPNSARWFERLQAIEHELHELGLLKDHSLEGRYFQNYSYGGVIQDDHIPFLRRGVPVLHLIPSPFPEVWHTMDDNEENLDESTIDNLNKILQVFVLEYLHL
row,IC50 [µM],SMILES
1,1.54,"CCCCCC1=C(O)C(=O)N(CCCn2ccnc2)C1c1ccccc1F (stereo not shown) [Compound 217, 5-(2-Fluoro-phenyl)-3-hydroxy-1-(3-imidazol-1-yl-propyl)-4-pentyl-1,5-dihydro-pyrrol-2-one]"
2,0.236,"CCCCCC1=C(O)C(=O)N(CCCn2ccnc2)C1c1cccc(Cl)c1 (stereo not shown) [Compound 216, 5-(3-Chloro-phenyl)-3-hydroxy-1-(3-imidazol-1-yl-propyl)-4-pentyl-1,5-dihydro-pyrrol-2-one]"
3,1.23,"COc1ccc(C2C(c3ccccc3)=C(O)C(=O)N2CCCn2ccnc2)cc1 (stereo not shown) [Compound 86, 3-Hydroxy-1-(3-imidazol-1-yl-propyl)-5-(4-methoxy-phenyl)-4-phenyl-1,5-dihydro-pyrrol-2-one]"

# Same assay, conditions: read-out: IC50
row,IC50 [µM],SMILES
1,5.71,"O=C1C(O)=C(c2cccc(O)c2)C(c2ccc(O)c(Br)c2)N1c1ccc2[nH]cnc2c1 (stereo not shown) [Compound 294, 1-(1H-Benzoimidazol-5-yl)-5-(3-bromo-4-hydroxy-phenyl)-3-hydroxy-4-(3-hydroxy-phenyl)-1,5-dihydro-pyrrol-2-one]"
2,0.04,"CCCCCC1=C(O)C(=O)N(CCCn2ccnc2)C1c1ccccc1F (stereo not shown) [Compound 217, 5-(2-Fluoro-phenyl)-3-hydroxy-1-(3-imidazol-1-yl-propyl)-4-pentyl-1,5-dihydro-pyrrol-2-one]"
3,0.04,"CCCCCC1=C(O)C(=O)N(CCCn2ccnc2)C1c1c[nH]c2ccccc12 (stereo not shown) [Compound 204, 3-Hydroxy-1-(3-imidazol-1-yl-propyl)-5-(1H-indol-3-yl)-4-pentyl-1,5-dihydro-pyrrol-2-one]"
4,9.49,"Cc1cccc(C2C(C(C)C)=C(O)C(=O)N2c2ccc3[nH]cnc3c2)n1 (stereo not shown) [Compound 430, 1-(1H-Benzoimidazol-5-yl)-3-hydroxy-4-isopropyl-5-(6-methyl-pyridin-2-yl)-1,5-dihydro-pyrrol-2-one]"
5,5.8,"CCCC1C(C(C)C)=C(O)C(=O)N1CCCn1ccnc1 (stereo not shown) [Compound 55, 3-Hydroxy-1-(3-imidazol-1-yl-propyl)-4-isopropyl-5-propyl-1,5-dihydro-pyrrol-2-one]"
6,4.9,"CCCC1C(C)=C(O)C(=O)N1CCCn1ccnc1 (stereo not shown) [Compound 22, 3-Hydroxy-1-(3-imidazol-1-yl-propyl)-4-methyl-5-propyl-1,5-dihydro-pyrrol-2-one]"
7,9.4,"CC(C)C1=C(O)C(=O)N(CCCn2ccnc2)C1c1ccccc1O (stereo not shown) [Compound 60, 3-Hydroxy-5-(2-hydroxy-phenyl)-1-(3-imidazol-1-yl-propyl)-4-isopropyl-1,5-dihydro-pyrrol-2-one]"
8,2.2,"CC(C)C1=C(O)C(=O)N(CCCn2ccnc2)C1c1cc[nH]n1 (stereo not shown) [Compound 56, 3-Hydroxy-1-(3-imidazol-1-yl-propyl)-4-isopropyl-5-(1H-pyrazol-3-yl)-1,5-dihydro-pyrrol-2-one]"
9,3.1,"CCC(C)C1C(F)=C(O)C(=O)N1CCCn1ccnc1 (stereo not shown) [Compound 1, 5-sec-Butyl-4-fluoro-3-hydroxy-1-(3-imidazol-1-yl-propyl)-1,5-dihydro-pyrrol-2-one]"
10,0.04,"CC(C)CC(=O)C1=C(O)C(=O)N(c2ccc3[nH]cnc3c2)C1c1c(F)c(F)cc(F)c1F (stereo not shown) [Compound 423, 1-(1H-Benzoimidazol-5-yl)-3-hydroxy-4-(3-methyl-butyryl)-5-(2,3,5,6-tetrafluoro-phenyl)-1,5-dihydro-pyrrol-2-one]"
11,0.4,"Cc1ccc(C2C(C(C)C)=C(O)C(=O)N2CCCn2ccnc2)cc1C (stereo not shown) [Compound 61, 5-(3,4-Dimethyl-phenyl)-3-hydroxy-1-(3-imidazol-1-yl-propyl)-4-isopropyl-1,5-dihydro-pyrrol-2-one]"
12,0.04,"CCC1=C(O)C(=O)N(CCCn2ccnc2)C1c1ccccc1O (stereo not shown) [Compound 230, 4-Ethyl-3-hydroxy-5-(2-hydroxy-phenyl)-1-(3-imidazol-1-yl-propyl)-1,5-dihydro-pyrrol-2-one]"
13,1.3,"CC1=C(O)C(=O)N(CCCn2ccnc2)C1c1ccccc1 (stereo not shown) [Compound 34, 3-Hydroxy-1-(3-imidazol-1-yl-propyl)-4-methyl-5-phenyl-1,5-dihydro-pyrrol-2-one]"
14,2.38,"CC(=O)C1=C(O)C(=O)N(c2ccc3[nH]cnc3c2)C1c1ccco1 (stereo not shown) [Compound 366, 4-Acetyl-1-(1H-benzoimidazol-5-yl)-5-furan-2-yl-3-hydroxy-1,5-dihydro-pyrrol-2-one]"
15,6.43,"O=C(O)CC1=C(O)C(=O)N(c2ccc3[nH]cnc3c2)C1c1csc2ccccc12 (stereo not shown) [Compound 408, [2-Benzo[b]thiophen-3-yl-1-(1H-benzoimidazol-5-yl)-4-hydroxy-5-oxo-2,5-dihydro-1H-pyrrol-3-yl]-acetic acid]"
16,1.39,"Cc1cc(C2C(c3ccc(O)cc3)=C(O)C(=O)N2c2ccc3[nH]cnc3c2)oc1C (stereo not shown) [Compound 271, 1-(1H-Benzoimidazol-5-yl)-5-(4,5-dimethyl-furan-2-yl)-3-hydroxy-4-(4-hydroxy-phenyl)-1,5-dihydro-pyrrol-2-one]"
17,1.93,"CC1=C(O)C(=O)N(c2ccc3[nH]cnc3c2)C1c1ccccc1F (stereo not shown) [Compound 386, 1-(1H-Benzoimidazol-5-yl)-5-(2-fluoro-phenyl)-3-hydroxy-4-methyl-1,5-dihydro-pyrrol-2-one]"
18,0.04,"CCC1=C(O)C(=O)N(CCCn2ccnc2)C1c1cccc(Cl)c1 (stereo not shown) [Compound 249, 5-(3-Chloro-phenyl)-4-ethyl-3-hydroxy-1-(3-imidazol-1-yl-propyl)-1,5-dihydro-pyrrol-2-one]"
19,1.3,"CCCCCC1=C(O)C(=O)N(CCCn2ccnc2)C1CC (stereo not shown) [Compound 215, 5-Ethyl-3-hydroxy-1-(3-imidazol-1-yl-propyl)-4-pentyl-1,5-dihydro-pyrrol-2-one]"
20,0.04,"CCCCCC1=C(O)C(=O)N(CCCn2ccnc2)C1c1cccc(Cl)c1 (stereo not shown) [Compound 216, 5-(3-Chloro-phenyl)-3-hydroxy-1-(3-imidazol-1-yl-propyl)-4-pentyl-1,5-dihydro-pyrrol-2-one]"
21,0.04,"O=C1C(O)=C(c2ccc(O)cc2)C(c2cccs2)N1CCCn1ccnc1 (stereo not shown) [Compound 173, 3-Hydroxy-4-(4-hydroxy-phenyl)-1-(3-imidazol-1-yl-propyl)-5-thiophen-2-yl-1,5-dihydro-pyrrol-2-one]"
22,1.3,"CC1=C(O)C(=O)N(CCCn2ccnc2)C1c1ccc(O)cc1 (stereo not shown) [Compound 52, 3-Hydroxy-5-(4-hydroxy-phenyl)-1-(3-imidazol-1-yl-propyl)-4-methyl-1,5-dihydro-pyrrol-2-one]"
23,0.76,"Cc1ccc(C2C(C(=O)CC(C)C)=C(O)C(=O)N2c2ccc3[nH]cnc3c2)o1 (stereo not shown) [Compound 289, 1-(1H-Benzoimidazol-5-yl)-3-hydroxy-4-(3-methyl-butyryl)-5-(5-methyl-furan-2-yl)-1,5-dihydro-pyrrol-2-one]"
24,3.1,"CC(C)C1=C(O)C(=O)N(CCCn2ccnc2)C1c1ccccc1 (stereo not shown) [Compound 65, 3-Hydroxy-1-(3-imidazol-1-yl-propyl)-4-isopropyl-5-phenyl-1,5-dihydro-pyrrol-2-one]"
25,0.04,"COc1ccc(C2C(c3ccccc3)=C(O)C(=O)N2CCCn2ccnc2)cc1 (stereo not shown) [Compound 86, 3-Hydroxy-1-(3-imidazol-1-yl-propyl)-5-(4-methoxy-phenyl)-4-phenyl-1,5-dihydro-pyrrol-2-one]"
26,0.22,"O=C(O)c1ccc(C2C(c3ccc(O)cc3)=C(O)C(=O)N2c2ccc3[nH]cnc3c2)o1 (stereo not shown) [Compound 389, 5-[1-(1H-Benzoimidazol-5-yl)-4-hydroxy-3-(4-hydroxy-phenyl)-5-oxo-2,5-dihydro-1H-pyrrol-2-yl]-furan-2-carboxylic acid]"
27,4.09,"O=C1C(O)=C(c2ccccc2)C(c2cc3ccccc3nc2Cl)N1c1ccc2[nH]cnc2c1 (stereo not shown) [Compound 373, 1-(1H-Benzoimidazol-5-yl)-5-(2-chloro-quinolin-3-yl)-3-hydroxy-4-phenyl-1,5-dihydro-pyrrol-2-one]"
28,0.13,"CC(=O)C1=C(O)C(=O)N(c2ccc3[nH]cnc3c2)C1c1cccc(Cl)c1 (stereo not shown) [Compound 301, 4-Acetyl-1-(1H-benzoimidazol-5-yl)-5-(3-chloro-phenyl)-3-hydroxy-1,5-dihydro-pyrrol-2-one]"
